What is called pIC50 is the IC50 on a negative log10 scale, so that one unit is a factor of ten. A high value points to a small IC50.

Among the data in ChEMBL document CHEMBL2331181, “Synthesis and in vitro cytotoxic activity evaluation of novel heterocycle bridged carbothioamide type isosteviol derivatives as antitumor agents” (Bioorg Med Chem Lett, 2013) are IC50 values, retold here.

What all share (type): functional, cell-based
One experiment relates to A549. As to the kind of experiment: Cytotoxicity against human A549 cells after 48 hrs by MTT assay. As to conditions: A549, 48 h. (In general: Tetrazolium assays rely on reduction of a dye to a coloured formazan, in cell work by metabolically active cells.)
For the next experiment, the system named is Raji. As to the kind of experiment: Cytotoxicity against human Raji cells after 48 hrs by MTT assay.
A further experiment relates to SGC-7901. Description: Cytotoxicity against human SGC7901 cells after 48 hrs by MTT assay. As to conditions: SGC-7901, 48 h.
For the next experiment, the system named is HeLa. Description: Cytotoxicity against human HeLa cells after 48 hrs by MTT assay.

Structures are written as SMILES. pIC50: −log10 of the molar value.

On to `CCOC(=O)[C@]1(C)CCC[C@@]2(C)[C@@H]3CC[C@@]4(C)C[C@]3(CC[C@@H]21)[C@@H]1CON(C(=S)Nc2ccccc2)[C@@H]14`, for which the negative logarithm of the IC50 (pIC50) was < 4.30 in the experiment with A549, 4.49 in the experiment with Raji, 4.56 with SGC-7901 and < 4.30 in the experiment with HeLa.

Consider `CCOC(=O)[C@]1(C)CCC[C@@]2(C)[C@@H]3CC[C@@]4(C)C[C@]3(CC[C@@H]21)[C@@H]1CON(C(=S)Nc2ccccc2F)[C@@H]14`, for which the pIC50 is < 4.30 with A549, 4.48 in the experiment with Raji, 4.55 in the experiment with SGC-7901 and < 4.30 in the experiment on HeLa.

With `CCOC(=O)[C@]1(C)CCC[C@@]2(C)[C@@H]3CC[C@@]4(C)C[C@]3(CC[C@@H]21)[C@@H]1CON(C(=S)Nc2cccc(F)c2)[C@@H]14`, the pIC50 is < 4.30 in the experiment with A549, 4.44 in the experiment with Raji, < 4.30 in the experiment on SGC-7901 and < 4.30 with HeLa.

Take `CCOC(=O)[C@]1(C)CCC[C@@]2(C)[C@@H]3CC[C@@]4(C)C[C@]3(CC[C@@H]21)[C@@H]1CON(C(=S)Nc2ccc(F)cc2)[C@@H]14`: the pIC50 in the experiment on A549, in the experiment on Raji, in the experiment with SGC-7901 and in the experiment on HeLa was < 4.30 each time.

On to `CCOC(=O)[C@]1(C)CCC[C@@]2(C)[C@@H]3CC[C@@]4(C)C[C@]3(CC[C@@H]21)[C@@H]1CON(C(=S)Nc2ccccc2Cl)[C@@H]14`, for which the pIC50 is < 4.30 in the experiment on A549, 4.45 with Raji, 4.36 in the experiment with SGC-7901 and < 4.30 in the experiment with HeLa.

As for `CCOC(=O)[C@]1(C)CCC[C@@]2(C)[C@@H]3CC[C@@]4(C)C[C@]3(CC[C@@H]21)[C@@H]1CON(C(=S)Nc2cccc(Cl)c2)[C@@H]14`, the pIC50 with A549, in the experiment on Raji, with SGC-7901 and with HeLa was < 4.30 each time.

In the case of `CCOC(=O)[C@]1(C)CCC[C@@]2(C)[C@@H]3CC[C@@]4(C)C[C@]3(CC[C@@H]21)[C@@H]1CON(C(=S)Nc2ccc(Cl)cc2)[C@@H]14`, the pIC50 with A549, in the experiment on Raji, with SGC-7901 and in the experiment on HeLa was < 4.30 throughout.

For `CCOC(=O)[C@]1(C)CCC[C@@]2(C)[C@@H]3CC[C@@]4(C)C[C@]3(CC[C@@H]21)[C@@H]1CON(C(=S)Nc2ccccc2Br)[C@@H]14`, the pIC50 in the experiment on A549, with Raji, in the experiment on SGC-7901 and in the experiment with HeLa was < 4.30 each time.

In the case of `CCOC(=O)[C@]1(C)CCC[C@@]2(C)[C@@H]3CC[C@@]4(C)C[C@]3(CC[C@@H]21)[C@@H]1CON(C(=S)Nc2cccc(Br)c2)[C@@H]14`, the pIC50 with A549 was < 4.30; in the experiment with Raji, < 4.30; with SGC-7901, 4.44; in the experiment on HeLa, < 4.30.

Regarding `C[C@@]12CC[C@@H]3[C@@](CC[C@H]4[C@@]3(C)CCC[C@@]4(C)C(=O)O)(CC1=O)C2` [ISOSTEVIOL], the pIC50 in the experiment with A549, in the experiment with Raji, with SGC-7901 and in the experiment on HeLa was < 4.30 each time.
